Data taken from the supplement of paper PMC10307832.

How the values were obtained:
Experiment in all cases: relative viability (nuclei count vs DMSO), 5 days (fraction); higher = more cells survive
[1] = compound: Cc1cnc(Nc2ccc(OCCN3CCCC3)cc2)nc1Nc1cccc(S(=O)(=O)NC(C)(C)C)c1 [Fedratinib] + CCNC(=O)c1noc(-c2cc(C(C)C)c(O)cc2O)c1-c1ccc(CN2CCOCC2)cc1 [Luminespib] (partner 0.01 µM)
Outline: (§1)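 Relative viability equals treated-well nuclei counts divided by vehicle-well nuclei counts. Counts came from 4× images of lung cancer cell lines grown in 1536-well plates for 5 days after pin-tool dosing on the day after seeding. Dosing used one drug alone or a fixed anchor-drug dose plus five library-drug doses (not always all listed) in √10 steps, and values are medians of duplicate plates.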

[2] = compound: COC1=CC=C(C=C1)COC2=C(C=C(C=C2)CC3=CN=C(N=C3N)N)OC [GW-2580] + CC(=O)c1c(C)c2cnc(Nc3ccc(N4CCNCC4)cn3)nc2n(C2CCCC2)c1=O [Palbociclib] (partner 0.5 µM)
Outline: as §1

[3] = compound: Cc1cnc(Nc2ccc(OCCN3CCCC3)cc2)nc1Nc1cccc(S(=O)(=O)NC(C)(C)C)c1 [Fedratinib] + C[C@@H](Oc1cc(-c2cnn(C3CCNCC3)c2)cnc1N)c1c(Cl)ccc(F)c1Cl [Crizotinib] (partner 1 µM)
Outline: as §1

[4] = compound: Cc1cnc(Nc2ccc(OCCN3CCCC3)cc2)nc1Nc1cccc(S(=O)(=O)NC(C)(C)C)c1 [Fedratinib] + C[C@]1(O)C[C@@H](c2nc(-c3ccc4ccc(-c5ccccc5)nc4c3)c3c(N)nccn32)C1 [Linsitinib] (partner 1 µM)
Outline: as §1

[5] = compound: COC1=CC=C(C=C1)COC2=C(C=C(C=C2)CC3=CN=C(N=C3N)N)OC [GW-2580] + CC1(C)CCC(c2ccc(Cl)cc2)=C(CN2CCN(c3ccc(C(=O)NS(=O)(=O)c4ccc(N[C@H](CCN5CCOCC5)CSc5ccccc5)c(S(=O)(=O)C(F)(F)F)c4)cc3)CC2)C1 [Navitoclax] (partner 0.5 µM)
Outline: as §1

Cell Line	relative viability ([1]; first compound 0.1 µM)	relative viability ([1]; first compound 0.3162 µM)	relative viability ([1]; first compound 1 µM)	relative viability ([2]; first compound 0.08 µM)	relative viability ([2]; first compound 0.8 µM)	relative viability ([2]; first compound 2.53 µM)	relative viability ([2]; first compound 8 µM)	relative viability ([3]; first compound 0.1 µM)	relative viability ([3]; first compound 0.3162 µM)	relative viability ([3]; first compound 1 µM)	relative viability ([4]; first compound 0.1 µM)	relative viability ([4]; first compound 0.3162 µM)	relative viability ([4]; first compound 1 µM)	relative viability ([5]; first compound 0.08 µM)	relative viability ([5]; first compound 0.8 µM)	relative viability ([5]; first compound 2.53 µM)	relative viability ([5]; first compound 8 µM)
HCC-827	0.436	0.698	0.492	0.571	0.531	0.479	0.467	0.985	0.963	0.953	0.964	1.01	0.948	1.06	0.952	0.898	0.92
HOP-62	0.958	0.924	0.908	0.584	0.438	0.481	0.515	0.786	0.891	0.784	0.837	0.975	0.884	1.15	1.05	0.984	1.26
IA-LM								0.805	0.589	0.736	0.547	0.546	0.786	0.895	0.88	0.723	0.782
LC-2-ad	1.01	1.06	0.917	0.578	0.549	0.491	0.45	0.474	0.444	0.446	0.838	0.85	0.71	0.544	0.52	0.357	0.498
LCLC-97TM1	0.85	0.758	0.7	0.214	0.308	0.199	0.221	0.353	0.24	0.334	0.151	0.192	0.203	0.443		0.369	0.321
LCLC-103H	0.9	0.946	0.937	0.51	0.48	0.459	0.493	1.07	0.922	1.01	1.19	1.1	0.966				
LK-2	0.173	0.169	0.186	0.877	0.853	0.426	0.614		0.187	0.214	0.349	0.733	0.495	0.983	1.09	0.616	1.03
LOU-NH91	0.323	0.4	0.33	0.516	0.514	0.505	0.54	0.701	0.764	0.75	0.844	1.08	0.831	0.683	0.731	0.618	0.752
LU99A	0.271	0.302	0.216	0.476	0.444	0.356	0.376	0.427	0.618	0.509	0.521	0.513	0.48	0.887	0.97	0.681	0.729
NCI-H358	0.578	0.2	0.307	0.135	0.147	0.139	0.15	0.427	0.608	0.374	0.565	0.597	0.53				
NCI-H522	1.14	1.21	1.14	1.04	1.06	0.825	1.04										
NCI-H596	0.962	1.2	0.875					0.983	1.01	0.973	1.01	1.08	1.08	1.05	0.982	0.94	0.9
NCI-H650	0.706	0.733	0.796	0.314	0.373	0.28	0.317		0.682	0.668		0.994	0.596				
NCI-H661	0.925	0.969	0.846	0.414	0.434	0.388	0.326	0.964	0.948	1.04	0.512	0.533	0.622				
NCI-H1299								0.884	0.946	0.94	0.946	0.96	0.994	1.09	1.06	1.06	0.97
NCI-H1395	0.661	0.868	0.62	0.594	0.603	0.57	0.613				1.2	1.29	1.28	1.08	1.06	1.13	1.11
NCI-H1563	0.472	0.504	0.516					0.898	0.893	0.842	1.16	1.18	1.16				
NCI-H1623	0.703	0.485	0.505														
NCI-H1648				0.293		0.274	0.239										
NCI-H1650		0.186	0.2	0.395	0.48	0.354	0.326	0.706	0.926	0.888				1.31	1.26	1.1	1.13
NCI-H1703								0.629	0.51	0.533		0.98	0.615	1.11	1.15	1.1	1.06
NCI-H1793	0.174	0.163	0.204	0.412	0.345	0.28	0.273				0.937	0.857	0.899	0.433	0.266	0.833	0.415
NCI-H2170	0.651	0.677	0.648	0.408	0.451	0.386	0.373	1.12	1.07	0.871				0.5	0.68	0.467	0.657
NCI-H2342	0.695	0.874	0.837	0.547	0.543	0.511	0.53										
SW 900	0.147	0.171	0.167	0.593	0.562	0.593	0.567										
